Tested on: MV-4-11 cells
Assay: Gene expression microarray analysis (Affymetrix PrimeView) and GSEA
Type: cell-based, human
Parameters: RFU PODN (11730768_x_at) / Fold change /veh PODN (11730768_x_at) / RFU LINC00158 (11744669_a_at) / Fold change /veh LINC00158 (11744669_a_at) / RFU DUSP10 (11751237_a_at) / Fold change /veh DUSP10 (11751237_a_at) / RFU ID3 (11757404_x_at) / Fold change /veh ID3 (11757404_x_at) / RFU PLEKHG5 (11737974_s_at) / Fold change /veh PLEKHG5 (11737974_s_at) / RFU LRRC4B (11730491_at) / Fold change /veh LRRC4B (11730491_at) / RFU GIMAP4 (11747438_a_at) / Fold change /veh GIMAP4 (11747438_a_at) / RFU KRT8 (11758183_x_at) / Fold change /veh KRT8 (11758183_x_at) / RFU CNN1 (11734310_a_at) / Fold change /veh CNN1 (11734310_a_at) / RFU VPS37D (11726825_at) / Fold change /veh VPS37D (11726825_at) / RFU C10orf10 (11716522_x_at) / Fold change /veh C10orf10 (11716522_x_at) / RFU KIR2DL2 /// KIR2DL4 /// KIR2DL5A /// KIR2DL5B /// KIR2DS1 /// KIR2DS2 /// KIR2DS3 /// KIR2DS4 /// KIR3DL3 /// KIR3DL3 /// KIR3DS1 (11738374_at) / Fold change /veh KIR2DL2 /// KIR2DL4 /// KIR2DL5A /// KIR2DL5B /// KIR2DS1 /// KIR2DS2 /// KIR2DS3 /// KIR2DS4 /// KIR3DL3 /// KIR3DL3 /// KIR3DS1 (11738374_at) / RFU C1QL1 (11718748_at) / Fold change /veh C1QL1 (11718748_at) / RFU TMPRSS4 (11747572_a_at) / Fold change /veh TMPRSS4 (11747572_a_at) / RFU HAMP (11756126_x_at) / Fold change /veh HAMP (11756126_x_at) / RFU RNFT2 (11725882_a_at) / Fold change /veh RNFT2 (11725882_a_at) / RFU NR4A2 (11747474_a_at) / Fold change /veh NR4A2 (11747474_a_at) / RFU ABCC12 (11746883_a_at) / Fold change /veh ABCC12 (11746883_a_at) / RFU TMEM136 (11760407_x_at) / Fold change /veh TMEM136 (11760407_x_at) / RFU CLDN22 /// WWC2 (11732394_at) / Fold change /veh CLDN22 /// WWC2 (11732394_at) / RFU HLA-DPB1 (11760878_x_at) / Fold change /veh HLA-DPB1 (11760878_x_at) / RFU SPINT1 (11716480_a_at) / Fold change /veh SPINT1 (11716480_a_at) / RFU GAP43 (11754022_s_at) / Fold change /veh GAP43 (11754022_s_at) / RFU A4GNT (11735810_at) / Fold change /veh A4GNT (11735810_at) / RFU PRB3 (11715151_x_at) / Fold change /veh PRB3 (11715151_x_at) / RFU TUBB4B (11761932_at) / Fold change /veh TUBB4B (11761932_at) / RFU CAPN14 (11732068_a_at) / Fold change /veh CAPN14 (11732068_a_at) / RFU TMCC2 (11721928_a_at) / Fold change /veh TMCC2 (11721928_a_at) / RFU IRGQ (11745062_a_at) / Fold change /veh IRGQ (11745062_a_at) / RFU FAM174B (11720279_a_at) / Fold change /veh FAM174B (11720279_a_at) / RFU TMPRSS4 (11748680_a_at) / Fold change /veh TMPRSS4 (11748680_a_at) / RFU FAM212B (11763350_a_at) / Fold change /veh FAM212B (11763350_a_at) / RFU PLEKHG5 (11743358_a_at) / Fold change /veh PLEKHG5 (11743358_a_at) / RFU ZSCAN30 (11745921_a_at) / Fold change /veh ZSCAN30 (11745921_a_at) / RFU CMKLR1 (11741424_a_at) / Fold change /veh CMKLR1 (11741424_a_at) / RFU LOC101060620 /// MAPK8IP1 (11723275_at) / Fold change /veh LOC101060620 /// MAPK8IP1 (11723275_at) / RFU SPTSSB (11747773_x_at) / Fold change /veh SPTSSB (11747773_x_at) / RFU PRSS12 (11739890_at) / Fold change /veh PRSS12 (11739890_at) / RFU BIN1 (11741810_x_at) / Fold change /veh BIN1 (11741810_x_at) / RFU WNT11 (11732464_a_at) / Fold change /veh WNT11 (11732464_a_at) / RFU C10orf10 (11716521_a_at) / Fold change /veh C10orf10 (11716521_a_at) / RFU C5orf56 (11738089_at) / Fold change /veh C5orf56 (11738089_at) / RFU CYB561 (11721691_x_at) / Fold change /veh CYB561 (11721691_x_at) / RFU ANKRD19P (11752326_a_at) / Fold change /veh ANKRD19P (11752326_a_at) / RFU OR2T12 /// OR2T33 /// OR2T8 (11738714_s_at) / Fold change /veh OR2T12 /// OR2T33 /// OR2T8 (11738714_s_at) / RFU VCAN (11748164_a_at) / Fold change /veh VCAN (11748164_a_at) / RFU JSRP1 (11732532_at) / Fold change /veh JSRP1 (11732532_at) / RFU KRTAP10-11 (11738290_x_at) / Fold change /veh KRTAP10-11 (11738290_x_at) / RFU MYO3A (11730013_a_at) / Fold change /veh MYO3A (11730013_a_at) / RFU EBF3 (11725865_a_at) / Fold change /veh EBF3 (11725865_a_at) / RFU CAMK2N1 (11719241_x_at) / Fold change /veh CAMK2N1 (11719241_x_at) / RFU C5orf56 (11738088_a_at) / Fold change /veh C5orf56 (11738088_a_at) / RFU OLFML3 (11715873_a_at) / Fold change /veh OLFML3 (11715873_a_at) / RFU LOC100653217 /// NTM (11731650_a_at) / Fold change /veh LOC100653217 /// NTM (11731650_a_at) / RFU MAPK11 (11762145_a_at) / Fold change /veh MAPK11 (11762145_a_at) / RFU FIZ1 (11724087_x_at) / Fold change /veh FIZ1 (11724087_x_at) / RFU OASL (11726364_x_at) / Fold change /veh OASL (11726364_x_at) / RFU SOX15 (11748057_x_at) / Fold change /veh SOX15 (11748057_x_at) / RFU CD79A (11719716_a_at) / Fold change /veh CD79A (11719716_a_at) / RFU HIST1H1D (11736915_at) / Fold change /veh HIST1H1D (11736915_at) / RFU CASKIN2 (11723855_a_at) / Fold change /veh CASKIN2 (11723855_a_at) / RFU LOC730098 (11760151_x_at) / Fold change /veh LOC730098 (11760151_x_at) / RFU OR4N2 (11742367_at) / Fold change /veh OR4N2 (11742367_at) / RFU PRRT2 (11749266_a_at) / Fold change /veh PRRT2 (11749266_a_at) / RFU SNX32 (11753110_a_at) / Fold change /veh SNX32 (11753110_a_at) / RFU CDHR5 (11726645_a_at) / Fold change /veh CDHR5 (11726645_a_at) / RFU RCAN1 (11760418_a_at) / Fold change /veh RCAN1 (11760418_a_at) / RFU FAM167A (11723789_a_at) / Fold change /veh FAM167A (11723789_a_at) / RFU FAM26E (11764081_at) / Fold change /veh FAM26E (11764081_at) / RFU ISYNA1 (11749810_s_at) / Fold change /veh ISYNA1 (11749810_s_at) / RFU ACY1 (11761880_at) / Fold change /veh ACY1 (11761880_at) / RFU 11764098_at / Fold change /veh 11764098_at / RFU SAMD14 (11745864_x_at) / Fold change /veh SAMD14 (11745864_x_at) / RFU NPB (11741838_a_at) / Fold change /veh NPB (11741838_a_at) / RFU TMPRSS6 (11731388_a_at) / Fold change /veh TMPRSS6 (11731388_a_at) / RFU KRTAP10-2 (11738614_at) / Fold change /veh KRTAP10-2 (11738614_at) / RFU ARHGAP8 /// PRR5-ARHGAP8 (11727945_x_at) / Fold change /veh ARHGAP8 /// PRR5-ARHGAP8 (11727945_x_at) / RFU KRTAP5-7 /// NADSYN1 (11734609_at) / Fold change /veh KRTAP5-7 /// NADSYN1 (11734609_at) / RFU RASL12 (11751679_a_at) / Fold change /veh RASL12 (11751679_a_at) / RFU CDKN2B (11736163_a_at) / Fold change /veh CDKN2B (11736163_a_at) / RFU PRF1 (11729649_at) / Fold change /veh PRF1 (11729649_at) / RFU, ZNF638 /// ZNF638-IT1 / Fold change vs veh, ZNF638 /// ZNF638-IT1 / RFU, PANK3 / Fold change vs veh, PANK3 / RFU, SH3YL1 / Fold change vs veh, SH3YL1 / RFU, ZEB2 / Fold change vs veh, ZEB2 / RFU, NRIP1 / Fold change vs veh, NRIP1 / RFU, PTTG1IP / Fold change vs veh, PTTG1IP / RFU, CAPN2 / Fold change vs veh, CAPN2 / RFU, MED14 / Fold change vs veh, MED14 / RFU, SNORA58 / Fold change vs veh, SNORA58 / RFU, C1orf63 / Fold change vs veh, C1orf63 / RFU, LRRFIP1 / Fold change vs veh, LRRFIP1 / RFU, NDUFAF7 / Fold change vs veh, NDUFAF7 / RFU, SLC12A2 / Fold change vs veh, SLC12A2 / RFU, IBTK / Fold change vs veh, IBTK / RFU, ESF1 / Fold change vs veh, ESF1 / Fold change vs veh, TMEM50B / RFU, TAOK1 / Fold change vs veh, TAOK1 / RFU, ACBD3 / Fold change vs veh, ACBD3 / RFU, TMA16 / Fold change vs veh, TMA16 / RFU, RWDD3 / Fold change vs veh, RWDD3 / RFU, BCAT1 / Fold change vs veh, BCAT1 / RFU, EDEM3 / Fold change vs veh, EDEM3 / RFU, TMEM33 / Fold change vs veh, TMEM33 / RFU, WDR75 / Fold change vs veh, WDR75 / RFU, AHCTF1 / Fold change vs veh, AHCTF1 / RFU, TFRC / Fold change vs veh, TFRC / RFU, ZDHHC17 / Fold change vs veh, ZDHHC17 / RFU, NOM1 / Fold change vs veh, NOM1 / RFU, ARL8B / Fold change vs veh, ARL8B / RFU, ZBTB11 / Fold change vs veh, ZBTB11 / RFU, TAMM41 / Fold change vs veh, TAMM41 / RFU, KIAA1704 /// LOC100996395 / Fold change vs veh, KIAA1704 /// LOC100996395 / RFU, ING1 / Fold change vs veh, ING1 / RFU, TRMT61B / Fold change vs veh, TRMT61B / RFU, FUBP3 / Fold change vs veh, FUBP3 / RFU, TP53 / Fold change vs veh, TP53 / RFU, TNKS2 / Fold change vs veh, TNKS2 / RFU, ZFP14 / Fold change vs veh, ZFP14 / RFU, ACTR2 / Fold change vs veh, ACTR2 / RFU, PPP3R1 / Fold change vs veh, PPP3R1 / RFU, PIK3R1 / Fold change vs veh, PIK3R1 / RFU, HNRNPA1 / Fold change vs veh, HNRNPA1 / RFU, RNF170 / Fold change vs veh, RNF170 / RFU, ZNF28 / Fold change vs veh, ZNF28 / RFU, RNGTT / Fold change vs veh, RNGTT / RFU, OGT / Fold change vs veh, OGT / RFU, BRD1 / Fold change vs veh, BRD1 / RFU, MARS / Fold change vs veh, MARS / RFU, ZNF655 / Fold change vs veh, ZNF655 / RFU, FAHD1 / Fold change vs veh, FAHD1 / RFU, BDP1 / Fold change vs veh, BDP1 / RFU, LRRCC1 / Fold change vs veh, LRRCC1 / RFU, ARID1A / Fold change vs veh, ARID1A / RFU, ZNF146 / Fold change vs veh, ZNF146 / RFU, ZNF330 / Fold change vs veh, ZNF330 / RFU, GPN3 / Fold change vs veh, GPN3 / RFU, C9orf123 / Fold change vs veh, C9orf123 / RFU, N4BP2L2 / Fold change vs veh, N4BP2L2 / RFU, ARFIP1 / Fold change vs veh, ARFIP1 / RFU, FAM179B / Fold change vs veh, FAM179B / RFU, BCL10 / Fold change vs veh, BCL10 / RFU, UHRF1BP1L / Fold change vs veh, UHRF1BP1L / RFU, BET1 / Fold change vs veh, BET1 / RFU, CNOT2 / Fold change vs veh, CNOT2 / RFU, ZNF268 / Fold change vs veh, ZNF268 / Fold change vs veh, ZNF507 / RFU, DGCR2 / Fold change vs veh, DGCR2 / RFU, WDSUB1 / Fold change vs veh, WDSUB1 / Fold change vs veh, HSP90B1 /// MIR3652 / RFU, ADSS / Fold change vs veh, ADSS / RFU, GK / Fold change vs veh, GK / RFU, ZNF148 / Fold change vs veh, ZNF148 / RFU, TAF9 / Fold change vs veh, TAF9 / RFU, SLC1A5 / Fold change vs veh, SLC1A5 / RFU, SLMO2 / Fold change vs veh, SLMO2 / RFU, ABCC4 / Fold change vs veh, ABCC4 / RFU, LOC101060439 /// RAP1B / Fold change vs veh, LOC101060439 /// RAP1B / RFU, RFX7 / Fold change vs veh, RFX7 / RFU, GTPBP10 / Fold change vs veh, GTPBP10 / RFU, CNEP1R1 / Fold change vs veh, CNEP1R1 / RFU, BIVM-ERCC5 /// ERCC5 / Fold change vs veh, BIVM-ERCC5 /// ERCC5 / RFU, ILF3 / Fold change vs veh, ILF3 / RFU 11762660_at / Fold change /veh 11762660_at / RFU VCAN (11757783_s_at) / Fold change /veh VCAN (11757783_s_at) / RFU DDX43 (11728927_at) / Fold change /veh DDX43 (11728927_at) / RFU KRT8 (11758188_x_at) / Fold change /veh KRT8 (11758188_x_at) / RFU NKD1 (11759106_at) / Fold change /veh NKD1 (11759106_at) / RFU SRD5A1 (11742802_a_at) / Fold change /veh SRD5A1 (11742802_a_at) / RFU TPSAB1 /// TPSB2 (11721975_s_at) / Fold change /veh TPSAB1 /// TPSB2 (11721975_s_at) / RFU GSTM3 (11746129_a_at) / Fold change /veh GSTM3 (11746129_a_at) / RFU IL23R (11737362_x_at) / Fold change /veh IL23R (11737362_x_at) / RFU TMEM51 (11727254_a_at) / Fold change /veh TMEM51 (11727254_a_at) / RFU PIWIL2 (11732686_x_at) / Fold change /veh PIWIL2 (11732686_x_at) / RFU ORM1 (11744905_x_at) / Fold change /veh ORM1 (11744905_x_at) / RFU CCDC152 (11743942_at) / Fold change /veh CCDC152 (11743942_at) / RFU ECM1 (11717891_a_at) / Fold change /veh ECM1 (11717891_a_at) / RFU IL23R (11748794_a_at) / Fold change /veh IL23R (11748794_a_at) / RFU TNFAIP8L3 (11732012_x_at) / Fold change /veh TNFAIP8L3 (11732012_x_at) / RFU MBOAT4 (11741988_at) / Fold change /veh MBOAT4 (11741988_at) / RFU 11764193_at / Fold change /veh 11764193_at / RFU TMEM53 (11763286_at) / Fold change /veh TMEM53 (11763286_at) / RFU MAGEB2 (11727129_at) / Fold change /veh MAGEB2 (11727129_at) / RFU TMEM200A (11744735_a_at) / Fold change /veh TMEM200A (11744735_a_at) / RFU CCDC152 (11751479_a_at) / Fold change /veh CCDC152 (11751479_a_at) / RFU FAM211A (11726209_a_at) / Fold change /veh FAM211A (11726209_a_at) / RFU RGS16 (11746705_a_at) / Fold change /veh RGS16 (11746705_a_at) / RFU VCAN (11755009_s_at) / Fold change /veh VCAN (11755009_s_at) / RFU RHOB (11743442_s_at) / Fold change /veh RHOB (11743442_s_at) / RFU RGS16 (11720943_a_at) / Fold change /veh RGS16 (11720943_a_at) / RFU RGS16 (11720944_at) / Fold change /veh RGS16 (11720944_at) / RFU, VPS4B / Fold change vs veh, VPS4B / RFU, CREB1 / Fold change vs veh, CREB1 / RFU, DNAJC13 / Fold change vs veh, DNAJC13 / RFU, GNAQ / Fold change vs veh, GNAQ / RFU, CDK5R1 / Fold change vs veh, CDK5R1 / RFU, ZRANB3 / Fold change vs veh, ZRANB3 / RFU, CUL4A / Fold change vs veh, CUL4A / RFU, CCNY / Fold change vs veh, CCNY / RFU, UFL1 / Fold change vs veh, UFL1 / RFU, COG3 / Fold change vs veh, COG3 / RFU, DIAPH2 / Fold change vs veh, DIAPH2 / RFU, SKA2 / Fold change vs veh, SKA2 / RFU, AFF3 / Fold change vs veh, AFF3 / RFU, LMF1 / Fold change vs veh, LMF1 / RFU, IPO11 / Fold change vs veh, IPO11 / RFU, DFFB / Fold change vs veh, DFFB / RFU, FOXP1 / Fold change vs veh, FOXP1 / RFU, CARD8 / Fold change vs veh, CARD8 / RFU, STRN3 / Fold change vs veh, STRN3 / RFU, ADK / Fold change vs veh, ADK / RFU, RASSF2 / Fold change vs veh, RASSF2 / RFU, WIPF1 / Fold change vs veh, WIPF1 / RFU, LARP1B / Fold change vs veh, LARP1B / RFU, RASA1 / Fold change vs veh, RASA1 / RFU, RB1 / Fold change vs veh, RB1 / RFU, PPFIA1 / Fold change vs veh, PPFIA1 / RFU, MAT2A / Fold change vs veh, MAT2A / RFU, CCT5 / Fold change vs veh, CCT5 / RFU, WDR92 / Fold change vs veh, WDR92 / RFU, CUX1 / Fold change vs veh, CUX1 / RFU, TTC7A / Fold change vs veh, TTC7A / RFU, TMEM135 / Fold change vs veh, TMEM135 / RFU, DEPTOR / Fold change vs veh, DEPTOR / RFU, CPM / Fold change vs veh, CPM / RFU, DNAJB6 / Fold change vs veh, DNAJB6 / RFU, CACNA2D3 / Fold change vs veh, CACNA2D3 / RFU, DTX4 / Fold change vs veh, DTX4 / RFU, TFCP2 / Fold change vs veh, TFCP2 / RFU, GMCL1 /// GMCL1P1 / Fold change vs veh, GMCL1 /// GMCL1P1 / RFU, AEBP2 / Fold change vs veh, AEBP2 / RFU, SNHG1 /// SNORD22 /// SNORD25 /// SNORD26 /// SNORD27 /// SNORD28 /// SNORD29 /// SNORD31 / Fold change vs veh, SNHG1 /// SNORD22 /// SNORD25 /// SNORD26 /// SNORD27 /// SNORD28 /// SNORD29 /// SNORD31 / Fold change (Aza/veh), C12orf56 (ProbeSet 11735607_a_at) / Fold change (ACY-1035/veh), C12orf56 (ProbeSet 11735607_a_at) / Fold change (Aza/veh), FGFR1OP (ProbeSet 11751329_s_at) / Fold change (ACY-1035/veh), FGFR1OP (ProbeSet 11751329_s_at) / Fold change (Aza/veh), VPS36 (ProbeSet 11739960_a_at) / Fold change (ACY-1035/veh), VPS36 (ProbeSet 11739960_a_at) / RFU SYPL1 (11715823_x_at) / Fold change /veh SYPL1 (11715823_x_at) / RFU IGFBP7 (11715501_s_at) / Fold change /veh IGFBP7 (11715501_s_at) / RFU REEP3 (11722064_at) / Fold change /veh REEP3 (11722064_at) / RFU IGLL1 (11728026_x_at) / Fold change /veh IGLL1 (11728026_x_at): dose or concentration left out as unconfirmed
Conditions: MV-4-11 cells, 48 hours

## Nc1ccc(-c2cccs2)cc1NC(=O)c1ccc2c(c1)cc(C1CC1)n2CCN1CCOCC1 [ACY-1035]
  RFU RGS16 (11720943_a_at): 70.47 RFU

— PMC5218480 (PLoS ONE, 2017)
